Measured values published in patent US4486602A, “Valienamine derivatives, their production and use” (Takeda Chemical Industries, Ltd., priority 1980, dated 1984).

System: α-glucoside hydrolase
Assay: suppression of α-glucoside hydrolase function (statement in words)
Format: biochemical
Conditions: not given

Row | SMILES | action of suppressing the function of α-glucoside hydrolase
1 | N[C@H]1C=C(CO)[C@@H](O)[C@H](O)[C@H]1O [valienamine] | possesses a highly valuable action of suppressing the function of α-glucoside hydrolase

Biological target: T1, α-glucosidase (yeast, type I) (Saccharomyces cerevisiae, UniProt P53341)
T1 construct: purchased Sigma Chemicals, U.S.A
Assay: α-glucosidase inhibitory activity, p-nitrophenyl-α-D-glucopyranoside as substrate
Format: biochemical
Conditions: not given
Protocol: The inhibitory activity of the compounds of this invention against α-glucosidase (yeast, type I, produced by Sigma Chemicals, U.S.A.), when p-nitrophenyl-α-D-glucopyranoside is used as a substrate, is determined by adding 0.5 ml of a solution of an inhibitor of this invention in 0.02M phosphate buffer (pH 6.8) and 0.25 ml of 0.01M p-nitrophenyl-α-D-glucopyranoside in the same buffer to 0.25 ml of a solution of α-glucosidase in the same buffer (0.005 mg/ml), allowing the reaction to proceed at 37° C. for 15 minutes, then adding 3 ml of 0.1M aqueous sodium carbonate solution to terminate the reaction, and measuring the absorbance of the reaction solution at 400 nm. The 50% inhibition concentration of the inhibitor is calculated from the inhibition rates (%) which are determined with inhibitory substance samples of three to five different concentrations.
(§1) When 0.05M maltose is used as a substrate, the inhibitory activity against maltase prepared from porcine intestinal mucosa is determined by measuring the amount of released D-glucose by use of glucose oxidase [Glucose B-Test Wako (a reagent for clinical diagnostic use for determining glucose, produced by Wako Pure Chemical Co. Japan)] to calculate the 50% inhibition concentration. The molar concentration required for 50% inhibition (IC50) of the α-glucosidase inhibitors represented by the formula [I], to inhibit activity of α-glucosidase (yeast), is shown in Table 1 and that to inhibit activity of maltase (porcine intestinal mucosa) is in Table 2.

T1 sequence (P53341 whole entry): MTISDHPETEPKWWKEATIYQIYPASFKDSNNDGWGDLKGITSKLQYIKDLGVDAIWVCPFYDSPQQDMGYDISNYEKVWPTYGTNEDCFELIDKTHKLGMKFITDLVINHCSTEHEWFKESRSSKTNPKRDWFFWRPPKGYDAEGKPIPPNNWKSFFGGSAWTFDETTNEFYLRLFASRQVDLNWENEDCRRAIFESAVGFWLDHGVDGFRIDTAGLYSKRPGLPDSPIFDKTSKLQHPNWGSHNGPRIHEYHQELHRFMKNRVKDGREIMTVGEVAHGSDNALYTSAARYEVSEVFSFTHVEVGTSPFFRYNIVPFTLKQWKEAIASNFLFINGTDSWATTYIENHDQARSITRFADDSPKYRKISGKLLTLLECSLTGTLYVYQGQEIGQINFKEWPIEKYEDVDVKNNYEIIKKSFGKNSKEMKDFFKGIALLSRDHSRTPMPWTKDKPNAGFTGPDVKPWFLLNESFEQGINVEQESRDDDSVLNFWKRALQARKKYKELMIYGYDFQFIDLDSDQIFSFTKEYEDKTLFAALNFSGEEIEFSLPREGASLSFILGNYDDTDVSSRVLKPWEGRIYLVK

Row | SMILES | IC50 [µM]
2 | CC(Cc1ccccc1)N[C@H]1C=C(CO)[C@@H](O)[C@H](O)[C@H]1O (stereo partly drawn) [Example 21, N-(α-methylphenethyl)valienamine] | 0.13

Same assay, conditions: Table 1; α-glucosidase (yeast); pH 6.8, 37° C., 15 minutes; read-out: IC50 (molar concentration required for 50% inhibition)

Row | SMILES | IC50 [µM]
3 | OCC1=C[C@H](NCc2ccccc2)[C@H](O)[C@@H](O)[C@@H]1O | 9.2
4 | OCC1=C[C@H](NCc2cccs2)[C@H](O)[C@@H](O)[C@@H]1O | 38
5 | OCC1=C[C@H](NCc2ccco2)[C@H](O)[C@@H](O)[C@@H]1O | 150
6 | OCC1=C[C@H](NCc2cccnc2)[C@H](O)[C@@H](O)[C@@H]1O | 56
7 | Cc1ccc(CN[C@H]2C=C(CO)[C@@H](O)[C@H](O)[C@H]2O)cc1 | 20
8 | COc1ccc(CN[C@H]2C=C(CO)[C@@H](O)[C@H](O)[C@H]2O)cc1 | 18
9 | O=C(O)c1ccc(CN[C@H]2C=C(CO)[C@@H](O)[C@H](O)[C@H]2O)cc1 | 150
10 | CC(N[C@H]1C=C(CO)[C@@H](O)[C@H](O)[C@H]1O)c1ccccc1 (some centres unmarked) | 13
11 | CC(CN[C@H]1C=C(CO)[C@@H](O)[C@H](O)[C@H]1O)c1ccccc1 (some centres unmarked) | 13
12 | OCC1=C[C@H](NCC=Cc2ccccc2)[C@H](O)[C@@H](O)[C@@H]1O | 20
13 | OCC1=C[C@H](NCCCOc2ccccc2)[C@H](O)[C@@H](O)[C@@H]1O | 1.1
14 | OCC1=C[C@H](NCCCCCc2ccccc2)[C@H](O)[C@@H](O)[C@@H]1O | 0.75
15 | OCC1=C[C@H](NCC(c2ccccc2)c2ccccc2)[C@H](O)[C@@H](O)[C@@H]1O | 0.038
16 | OCC1=C[C@H](NCC2CCCCC2)[C@H](O)[C@@H](O)[C@@H]1O | 0.38
17 | CC(C)(C)c1cc(CN[C@H]2C=C(CO)[C@@H](O)[C@H](O)[C@H]2O)cc(C(C)(C)C)c1O | 12
18 | OCC1=C[C@H](NC[C@H](O)[C@@H](O)[C@H](O)[C@H](O)CO)[C@H](O)[C@@H](O)[C@@H]1O | 110

Row | SMILES | IC50 [µM]
19 | OCC1=C[C@H](NC[C@H](O)[C@@H](O)[C@@H](O)[C@H](O)CO)[C@H](O)[C@@H](O)[C@@H]1O | 160
20 | OCC1=C[C@H](NC(CO)[C@@H](O)[C@H](O)[C@H](O)CO)[C@H](O)[C@@H](O)[C@@H]1O (some centres unmarked) | 110
21 | OCC1=C[C@H](NC[C@@H](O)[C@@H](O)[C@H](O)[C@H](O)CO)[C@H](O)[C@@H](O)[C@@H]1O | 100
22 | OCC1=C[C@H](NC[C@@H](O)[C@H](O)[C@H](O)CO)[C@H](O)[C@@H](O)[C@@H]1O | 120
23 | OCC1=C[C@H](NC[C@H](O)[C@H](O)[C@H](O)CO)[C@H](O)[C@@H](O)[C@@H]1O | 90
24 | OCC1=C[C@H](NC[C@H](O)[C@@H](O)[C@H](O)CO)[C@H](O)[C@@H](O)[C@@H]1O | 110
25 | CCCCN[C@H]1C=C(CO)[C@@H](O)[C@H](O)[C@H]1O [CH2 CH2 CH2 CH3, N-n-butylvalienamine] | 21
26 | OCC1=C[C@H](NCCc2ccccc2)[C@H](O)[C@@H](O)[C@@H]1O [drawing 15] | 1.8
27 | OCC1=C[C@H](NCC(O)c2ccccc2)[C@H](O)[C@@H](O)[C@@H]1O (some centres unmarked) [drawing 16] | 1.1
28 | OCC1=C[C@H](NCCCc2ccccc2)[C@H](O)[C@@H](O)[C@@H]1O [drawing 18] | 2.2
29 | OCC1=C[C@H](NCCCCc2ccccc2)[C@H](O)[C@@H](O)[C@@H]1O [drawing 20] | 0.98
30 | OCC1=C[C@H](NCc2ccc(O)cc2)[C@H](O)[C@@H](O)[C@@H]1O [drawing 23] | 5
31 | COc1ccccc1C(O)CN[C@H]1C=C(CO)[C@@H](O)[C@H](O)[C@H]1O (some centres unmarked) [drawing 24] | 0.38
32 | CC(C)=CCC/C(C)=C/CN[C@H]1C=C(CO)[C@@H](O)[C@H](O)[C@H]1O [drawing 27] | 1.7
33 | OCC1=C[C@H](NC(CO)CO)[C@H](O)[C@@H](O)[C@@H]1O [drawing 29] | 66
34 | OCC1=C[C@H](NC(CO)[C@@H](O)[C@H](O)[C@@H](O)CO)[C@H](O)[C@@H](O)[C@@H]1O (some centres unmarked) [drawing 37] | 130

Biological target: maltase (porcine intestinal mucosa)
Assay: inhibitory activity against maltase, 0.05M maltose as substrate
Format: biochemical
Conditions: Table 2, read-out: IC50 (molar concentration required for 50% inhibition)
Protocol: as §1

Row | SMILES | IC50 [µM]
35 | OCC1=C[C@H](NCc2ccc(Br)cc2)[C@H](O)[C@@H](O)[C@@H]1O | 75
36 | OCC1=C[C@H](NCC(O)COc2ccccc2)[C@H](O)[C@@H](O)[C@@H]1O (some centres unmarked) | 24
37 | OCC1=C[C@H](NC(CO)c2ccccc2)[C@H](O)[C@@H](O)[C@@H]1O (some centres unmarked) | 14
38 | OCC1=C[C@H](NC(CO)C(O)c2ccccc2)[C@H](O)[C@@H](O)[C@@H]1O (some centres unmarked) | 9.6
39 | OCC1=C[C@H](NCc2ccc(O)c(O)c2)[C@H](O)[C@@H](O)[C@@H]1O | 8.1
40 | OCC1=C[C@H](NCCc2ccccc2)[C@H](O)[C@@H](O)[C@@H]1O [drawing 38] | 11
41 | OCC1=C[C@H](NCCCc2ccccc2)[C@H](O)[C@@H](O)[C@@H]1O [drawing 39] | 20
42 | OCC1=C[C@H](NCCCCc2ccccc2)[C@H](O)[C@@H](O)[C@@H]1O [drawing 40] | 80
43 | OCC1=C[C@H](NCC(O)c2ccccc2)[C@H](O)[C@@H](O)[C@@H]1O (some centres unmarked) [drawing 41] | 3.2
44 | OCC1=C[C@H](NCc2ccc(O)cc2)[C@H](O)[C@@H](O)[C@@H]1O [drawing 43] | 19
45 | CC(Cc1ccccc1)N[C@H]1C=C(CO)[C@@H](O)[C@H](O)[C@H]1O (some centres unmarked) [drawing 46] | 2.4
46 | COc1ccccc1C(O)CN[C@H]1C=C(CO)[C@@H](O)[C@H](O)[C@H]1O (some centres unmarked) [drawing 47] | 3.1
47 | CC(C)=CCC/C(C)=C/CN[C@H]1C=C(CO)[C@@H](O)[C@H](O)[C@H]1O [drawing 48] | 5.2
48 | OCC1=C[C@H](NC(CO)CO)[C@H](O)[C@@H](O)[C@@H]1O [drawing 49] | 14
49 | OCC1=C[C@H](NC(CO)[C@@H](O)[C@H](O)[C@@H](O)CO)[C@H](O)[C@@H](O)[C@@H]1O (some centres unmarked) [drawing 50] | 14

Biological target: T2, saccharase (porcine intestinal mucosa) (Sus scrofa, UniProt P56729)
T2 construct: saccharase prepared from porcine intestinal mucosa; from tissue; host or cells: porcine intestinal mucosa
Assay: inhibitory activity against saccharase
Format: biochemical
Conditions: not given
Protocol: The inhibitory activity against saccharase prepared from porcine intestinal mucosa is determined by a similar method to that against maltase in accordance with the method described in Acta. Chem. Scand., 12, 1997-2006 (1958).

T2 sequence (P56729 with tags, fused parts or gaps limits assumed): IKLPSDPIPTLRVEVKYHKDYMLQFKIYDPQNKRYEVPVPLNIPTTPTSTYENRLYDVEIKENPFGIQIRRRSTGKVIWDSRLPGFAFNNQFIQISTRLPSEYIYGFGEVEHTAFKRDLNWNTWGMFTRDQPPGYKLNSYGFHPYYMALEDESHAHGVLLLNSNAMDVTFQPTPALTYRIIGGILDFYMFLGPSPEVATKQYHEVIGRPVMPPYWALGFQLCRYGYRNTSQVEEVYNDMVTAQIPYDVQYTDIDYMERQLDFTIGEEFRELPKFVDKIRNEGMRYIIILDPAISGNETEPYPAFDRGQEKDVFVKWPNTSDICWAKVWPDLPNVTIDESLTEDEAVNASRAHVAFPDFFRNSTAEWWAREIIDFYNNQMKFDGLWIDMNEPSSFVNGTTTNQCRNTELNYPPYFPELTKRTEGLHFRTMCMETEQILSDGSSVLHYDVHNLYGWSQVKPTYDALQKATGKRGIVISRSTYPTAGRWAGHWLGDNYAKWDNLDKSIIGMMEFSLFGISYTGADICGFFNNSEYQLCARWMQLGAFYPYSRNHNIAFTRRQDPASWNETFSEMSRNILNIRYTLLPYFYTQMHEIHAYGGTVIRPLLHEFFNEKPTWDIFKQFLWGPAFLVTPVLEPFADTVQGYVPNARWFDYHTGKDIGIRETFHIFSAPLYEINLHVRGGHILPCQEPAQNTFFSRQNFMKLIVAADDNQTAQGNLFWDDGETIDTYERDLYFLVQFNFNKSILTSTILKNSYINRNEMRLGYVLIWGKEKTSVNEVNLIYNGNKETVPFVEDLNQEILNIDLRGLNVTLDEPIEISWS
T2 sequence (P56729 with tags, fused parts or gaps partner limits assumed): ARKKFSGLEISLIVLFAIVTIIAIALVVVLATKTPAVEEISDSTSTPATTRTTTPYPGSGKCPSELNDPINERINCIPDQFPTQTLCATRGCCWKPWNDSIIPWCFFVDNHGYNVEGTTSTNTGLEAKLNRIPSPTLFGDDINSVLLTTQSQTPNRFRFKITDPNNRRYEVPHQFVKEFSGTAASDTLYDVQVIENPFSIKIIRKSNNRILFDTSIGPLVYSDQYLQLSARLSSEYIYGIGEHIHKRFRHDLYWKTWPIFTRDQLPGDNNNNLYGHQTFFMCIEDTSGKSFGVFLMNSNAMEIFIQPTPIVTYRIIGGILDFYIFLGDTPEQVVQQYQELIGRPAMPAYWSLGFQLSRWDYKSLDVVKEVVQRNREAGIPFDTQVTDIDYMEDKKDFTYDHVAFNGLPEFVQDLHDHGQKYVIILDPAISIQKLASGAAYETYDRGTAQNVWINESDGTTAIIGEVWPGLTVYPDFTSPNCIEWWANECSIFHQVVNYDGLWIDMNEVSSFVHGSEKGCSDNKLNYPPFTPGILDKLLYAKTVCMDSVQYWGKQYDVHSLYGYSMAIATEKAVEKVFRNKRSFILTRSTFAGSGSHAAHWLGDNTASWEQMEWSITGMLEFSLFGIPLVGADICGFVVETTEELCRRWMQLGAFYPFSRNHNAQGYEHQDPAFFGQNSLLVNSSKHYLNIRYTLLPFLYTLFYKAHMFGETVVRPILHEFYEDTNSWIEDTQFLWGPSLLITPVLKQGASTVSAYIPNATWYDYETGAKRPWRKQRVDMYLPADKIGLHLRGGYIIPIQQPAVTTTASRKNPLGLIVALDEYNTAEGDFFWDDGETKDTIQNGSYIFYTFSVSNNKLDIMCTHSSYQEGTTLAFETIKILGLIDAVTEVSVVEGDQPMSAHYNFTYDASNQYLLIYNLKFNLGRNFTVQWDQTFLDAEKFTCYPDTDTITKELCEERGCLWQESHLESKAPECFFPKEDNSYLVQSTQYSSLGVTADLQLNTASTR

Row | SMILES | IC50 [µM]
50 | OCC1=C[C@H](NC2CCCCC2O)[C@H](O)[C@@H](O)[C@@H]1O (some centres unmarked) [Example 36, N-(2-hydroxycyclohexyl)valienamine] | 0.17
